Measured values published in patent US10689414B2 (Agios Pharmaceuticals, Inc., priority 2013, dated 2020).

System: U87MG cells
Experiment: Cellular assay, inhibition of 2-HG production in U87MG cells
Format: cell-based
Method: Cells (HT1080 or U87MG) are grown in T125 flasks in DMEM containing 10% FBS, 1× penicillin/streptomycin and 500 ug/mL G418 (present in U87MG cells only). They are harvested by trypsin and seeded into 96 well white bottom plates at a density of 5000 cell/well in 100 ul/well in DMEM with 10% FBS. […] Cells are incubated overnight at 37° C. in 5% CO2. The next day test compounds are made up at 2× the final concentration and 100 ul are added to each cell well. The final concentration of DMSO is 0.2% and the DMSO control wells are plated in row G. The plates are then placed in the incubator for 48 hours. […] The cell plate is placed back in the incubator for another 24 hours. At 72 hours post compound addition, 10 mL/plate of Promega Cell Titer Glo reagent is thawed and mixed. The cell plate is removed from the incubator and allowed to equilibrate to room temperature. Then 100 ul of Promega Cell Titer Glo reagent is added to each well of media. The cell plate is then placed on an orbital shaker for 10 minutes and then allowed to sit at room temperature for 20 minutes. The plate is then read for luminescence with an integration time of 500 ms.

N#Cc1cc(F)cc(N(C(=O)[C@@H]2CCC(=O)N2c2cc(C#N)ccn2)[C@H](C(=O)NC2CC(F)(F)C2)c2ccccc2)c1 [Compound 211, (S)—N-(3-Cyano-5-fluorophenyl)-1-(4-cyanopyridin-2-yl)-N—((S)-2-(3,3-difluorocyclobutyl-amino)-2-oxo-1-phenylethyl)-5-oxopyrrolidine-2-carboxamide]
IC50 (Homo sapiens, U-87 MG, 48 h): < 0.1 µM

N#Cc1ccnc(N2C(=O)CC[C@H]2C(=O)N(c2cncc(F)c2)[C@H](C(=O)NC2CC(F)(F)C2)c2ccccc2F)c1 [Compound 148, (S)-1-(4-Cyanopyridin-2-yl)-N—((S)-2-((3,3-difluorocyclobutyl)amino)-1-(2-fluorophenyl)-2-oxoethyl)-N-(5-fluoropyridin-3-yl)-5-oxopyrrolidine-2-carboxamide]
IC50 (Homo sapiens, U-87 MG, 48 h): < 0.1 µM

N#Cc1ccnc(N2C(=O)[C@H](F)C[C@H]2C(=O)N(c2cccc(F)c2)[C@H](C(=O)NC2CCC(F)(F)CC2)c2ccccc2Cl)c1 [Compound 151, (2S,4R)—N—((S)-1-(2-Chlorophenyl)-2-((4,4-difluorocyclohexyl)amino)-2-oxoethyl)-1-(4-cyanopyridin-2-yl)-4-fluoro-N-(3-fluorophenyl)-5-oxopyrrolidine-2-carboxamide]
IC50 (Homo sapiens, U-87 MG, 48 h): < 0.1 µM

N#Cc1ccnc(N2C(=O)CC[C@H]2C(=O)N(c2cc(F)cc(F)c2)[C@H](C(=O)NC2CCC(F)(F)CC2)c2ccccc2Cl)c1 [Compound 81, (2S)—N-(1-(2-Chlorophenyl)-2-(4,4-difluorocyclohexylamino)-2-oxoethyl)-1-(4-cyanopyridin-2-yl)-N-(3,5-difluorophenyl)-5-oxopyrrolidine-2-carboxamide]
IC50 (Homo sapiens, U-87 MG, 48 h): < 0.1 µM

N#Cc1ccnc(N2C(=O)CC[C@H]2C(=O)N(c2cc(F)cc(C3CC3)c2)[C@H](C(=O)NC2CCC(F)(F)CC2)c2ccccc2Cl)c1 [Compound 202, (S)—N—((S)-1-(2-Chlorophenyl)-2-((4,4-difluorocyclohexyl)amino)-2-oxoethyl)-1-(4-cyanopyridin-2-yl)-N-(3-cyclopropyl-5-fluorophenyl)-5-oxopyrrolidine-2-carboxamide]
IC50 (Homo sapiens, U-87 MG, 48 h): < 0.1 µM

N#Cc1ccnc(N2C(=O)CC[C@H]2C(=O)N(c2cccc(F)c2)[C@H](C(=O)NC2CCC(F)(F)CC2)c2ccccc2Cl)c1 [Compound 53]
IC50 (Homo sapiens, U-87 MG, 48 h): < 0.1 µM

N#Cc1cc(F)cc(N(C(=O)[C@@H]2CCC(=O)N2c2cc(C#N)ccn2)[C@H](C(=O)NC2CC(F)(F)C2)c2ccccc2F)c1 [Compound 207, (S)—N-(3-Cyano-5-fluorophenyl)-1-(4-cyanopyridin-2-yl)-N—((S)-2-((3,3-difluorocyclobutyl)amino)-1-(2-fluorophenyl)-2-oxoethyl)-5-oxopyrrolidine-2-carboxamide]
IC50 (Homo sapiens, U-87 MG, 48 h): < 0.1 µM

N#Cc1cccc(N(C(=O)[C@@H]2CCC(=O)N2c2cc(C#N)ccn2)[C@H](C(=O)NC2CCC(F)(F)CC2)c2ccccc2Cl)c1 [Compound 166, (S)—N—((S)-1-(2-Chlorophenyl)-2-((4,4-difluorocyclohexyl)amino)-2-oxoethyl)-N-(3-cyanophenyl)-1-(4-cyanopyridin-2-yl)-5-oxopyrrolidine-2-carboxamide]
IC50 (Homo sapiens, U-87 MG, 48 h): < 0.1 µM

N#Cc1ccnc(N2C(=O)CC[C@H]2C(=O)N(c2cccc(S(N)(=O)=O)c2)[C@H](C(=O)NC2CC(F)(F)C2)c2ccccc2Cl)c1 [Compound 84, (S)—N—((S)-1-(2-Chlorophenyl)-2-(3,3-difluorocyclobutylamino)-2-oxoethyl)-1-(4-cyanopyridin-2-yl)-5-oxo-N-(3-sulfamoylphenyl)pyrrolidine-2-carboxamide]
IC50 (Homo sapiens, U-87 MG, 48 h): 0.1 to 0.5 µM

N#Cc1ccnc(N2C(=O)OCC[C@H]2C(=O)N(c2cc(F)cc(F)c2)[C@H](C(=O)NC2CC(F)(F)C2)c2ccccc2Cl)c1 [Compound 133, (S)—N—((S)-1-(2-Chlorophenyl)-2-((3,3-difluorocyclobutyl)amino)-2-oxoethyl)-3-(4-cyanopyridin-2-yl)-N-(3,5-difluorophenyl)-2-oxo-1,3-oxazinane-4-carboxamide]
IC50 (Homo sapiens, U-87 MG, 48 h): < 0.1 µM

N#Cc1ccnc(N2C(=O)CC[C@H]2C(=O)N(c2cccc(F)c2)[C@H](C(=O)NC2CC(F)(F)C2)c2ccccc2Cl)n1 [Compound 68, (S)—N—((S)-1-(2-Chlorophenyl)-2-((3,3-difluorocyclobutyl)amino)-2-oxoethyl)-1-(4-cyanopyrimidin-2-yl)-N-(3-fluorophenyl)-5-oxopyrrolidine-2-carboxamide]
IC50 (Homo sapiens, U-87 MG, 48 h): < 0.1 µM

CC(C)(C)OC(=O)N1CC(=O)N(c2nccc(C#N)n2)[C@H](C(=O)N(c2cc(F)cc(F)c2)[C@H](C(=O)NC2CCC(F)(F)CC2)c2ccccc2Cl)C1 [Compound 93, (S)-tert-Butyl 3-(((S)-1-(2-chlorophenyl)-2-((4,4-difluorocyclohexyl)amino)-2-oxoethyl)(3,5-difluorophenyl)carbamoyl)-4-(4-cyanopyrimidin-2-yl)-5-oxopiperazine-1-carboxylate]
IC50 (Homo sapiens, U-87 MG, 48 h): < 0.1 µM

N#Cc1ccnc(N2C(=O)CC[C@H]2C(=O)N(c2cncc(F)c2)C(C(=O)NC2CC(F)(F)C2)c2ccccc2Cl)c1 (stereo partly shown) [Compound 91]
IC50 (Homo sapiens, U-87 MG, 48 h): < 0.1 µM

N#Cc1ccnc(N2C(=O)[C@H](O)C[C@H]2C(=O)N(c2cc(F)cc(F)c2)[C@@H](C(=O)NC2CCC(F)(F)CC2)c2ccccc2Cl)n1 [Compound 126, (2S,4R)—N—((R)-1-(2-Chlorophenyl)-2-(4,4-difluorocyclohexylamino)-2-oxoethyl)-1-(4-cyanopyrimidin-2-yl)-N-(3,5-difluorophenyl)-4-hydroxy-5-oxopyrrolidine-2-carboxamide]
IC50 (Homo sapiens, U-87 MG, 48 h): 0.1 to 0.5 µM

O=C(NC1CC(F)(F)C1)[C@H](c1ccccc1Cl)N(C(=O)[C@@H]1COC(=O)N1c1cscn1)c1cccc(F)c1 [Compound 72]
IC50 (Homo sapiens, U-87 MG, 48 h): < 0.1 µM

N#Cc1ccnc(N2C(=O)CC[C@H]2C(=O)N(c2cccc(C3(O)CC3)c2)[C@H](C(=O)NC2CC(F)(F)C2)c2ccccc2Cl)c1 [Compound 140, (S)—N—((S)-1-(2-Xhlorophenyl)-2-(3,3-difluorocyclobutylamino)-2-oxoethyl)-1-(4-cyanopyridin-2-yl)-N-(3-(1-hydroxycyclopropyl)phenyl)-5-oxopyrrolidine-2-carboxamide]
IC50 (inhibition of 2-HG production, U87MG cells, 48 hours): < 0.1 µM

Cc1ccc(N2C(=O)CC[C@H]2C(=O)N(c2cccc(F)c2)[C@H](C(=O)NC2CC(F)(F)C2)c2ccccc2Cl)nc1 [Compound 21]
IC50 (Homo sapiens, U-87 MG, 48 h): 0.1 to 0.5 µM

N#Cc1cccc(N(C(=O)[C@@H]2CCC(=O)N2c2nccc(C#N)n2)[C@H](C(=O)NC2CC(F)(F)C2)c2ccccc2Cl)c1 [Compound 167, (S)—N—((S)-1-(2-Chlorophenyl)-2-((3,3-difluorocyclobutyl)amino)-2-oxoethyl)-N-(3-cyanophenyl)-1-(4-cyanopyrimidin-2-yl)-5-oxopyrrolidine-2-carboxamide]
IC50 (Homo sapiens, U-87 MG, 48 h): < 0.1 µM

N#Cc1ccnc(N2C(=O)CC[C@H]2C(=O)N(c2cccc(F)c2)[C@H](C(=O)NC2CC(F)(F)C2)c2ccccc2F)c1 [Compound 149, (S)-1-(4-Cyanopyridin-2-yl)-N—((S)-2-((3,3-difluorocyclobutyl)amino)-1-(2-fluorophenyl)-2-oxoethyl)-N-(3-fluorophenyl)-5-oxopyrrolidine-2-carboxamide]
IC50 (Homo sapiens, U-87 MG, 48 h): < 0.1 µM

O=C(NC1CCC(F)(F)C1)C(c1ccccc1Cl)N(C(=O)[C@@H]1CCC(=O)N1c1ncccn1)c1cccc(F)c1 (mixture of isomers) [Compound 73, (2S)—N-(1-(2-Chlorophenyl)-2-((3,3-difluorocyclopentyl)amino)-2-oxoethyl)-N-(3-fluorophenyl)-5-oxo-1-(pyrimidin-2-yl)pyrrolidine-2-carboxamide]
IC50 (Homo sapiens, U-87 MG, 48 h): < 0.1 µM

N#Cc1ccnc(N2C(=O)OCC[C@H]2C(=O)N(c2cc(F)cc(F)c2)[C@H](C(=O)NC2CCC(F)(F)CC2)c2ccccc2Cl)c1 [Compound 139, (S)—N—((S)-1-(2-Chlorophenyl)-2-((4,4-difluorocyclohexyl)amino)-2-oxoethyl)-3-(4-cyanopyridin-2-yl)-N-(3,5-difluorophenyl)-2-oxo-1,3-oxazinane-4-carboxamide]
IC50 (Homo sapiens, U-87 MG, 48 h): < 0.1 µM

N#Cc1cc(F)cc(N(C(=O)[C@@H]2CCC(=O)N2c2nccc(C#N)n2)[C@H](C(=O)NC2CCC(F)(F)CC2)c2ccccc2Cl)c1 [Compound 185, (S)—N—((S)-1-(2-Chlorophenyl)-2-((4,4-difluorocyclohexyl)amino)-2-oxoethyl)-N-(3-cyano-5-fluorophenyl)-1-(4-cyanopyrimidin-2-yl)-5-oxopyrrolidine-2-carboxamide]
IC50 (Homo sapiens, U-87 MG, 48 h): < 0.1 µM

N#Cc1ccnc(N2C(=O)CC[C@H]2C(=O)N(c2cc(F)cc(C3CC3)c2)[C@H](C(=O)NC2CC(F)(F)C2)c2ccccc2Cl)c1 [Compound 204, (S)—N—((S)-1-(2-Chlorophenyl)-2-((3,3-difluorocyclobutyl)amino)-2-oxoethyl)-1-(4-cyanopyri-din-2-yl)-N-(3-cyclopropyl-5-fluorophenyl)-5-oxopyrrolidine-2-carboxamide]
IC50 (Homo sapiens, U-87 MG, 48 h): < 0.1 µM

N#Cc1ccnc(N2C(=O)NC[C@H]2C(=O)N(c2cccc(F)c2)[C@H](C(=O)NC2CC(F)(F)C2)c2ccccc2Cl)c1 [Compound 80, (S)—N—((S)-1-(2-chlorophenyl)-2-(3,3-difluorocyclobutylamino)-2-oxoethyl)-3-(4-cyanopyridin-2-yl)-N-(3-fluorophenyl)-2-oxoimidazolidine-4-carboxamide]
IC50 (Homo sapiens, U-87 MG, 48 h): < 0.1 µM

N#Cc1ccnc(N2C(=O)CCC[C@H]2C(=O)N(c2cccc(F)c2)[C@H](C(=O)NC2CCC(F)(F)CC2)c2ccccc2Cl)c1 [Compound 75, (S)—N—((S)-1-(2-Chlorophenyl)-2-((4,4-difluorocyclohexyl)amino)-2-oxoethyl)-1-(4-cyano-pyridin-2-yl)-N-(3-fluorophenyl)-6-oxopiperidine-2-carboxamide]
IC50 (Homo sapiens, U-87 MG, 48 h): < 0.1 µM
